{
  "source": "patent US9381208B2",
  "about": "“Structure and use of 5′ phosphate oligonucleotides” (Rheinische Friedrich-Wilhelms-Universität, priority 2006, dated 2016)",
  "molecules": {"B1": {"name": "IFN-β: Recombinant murine IFNβ (protein, UniProt P01575 22-182, looked up)", "Interferon beta": "INYKQLQLQERTNIRKCQELLEQLNGKINLTYRADFKIPMEMTEKMQKSYTAFAIQEMLQNVFLVFRNNFSSTGWNETIVVRLLDELHQQTVFLKTVLEEKQEERLTWEMSSTALHLKSYYWRVQRYLKLMKYNSYAWMVVRAEIFRNFLIIRRLTRNFQN"}},
  "key": {"[1]": {"biological_target": "T1, RIG-I (Homo sapiens, UniProt O95786)", "T1 sequence (O95786 1-925)": "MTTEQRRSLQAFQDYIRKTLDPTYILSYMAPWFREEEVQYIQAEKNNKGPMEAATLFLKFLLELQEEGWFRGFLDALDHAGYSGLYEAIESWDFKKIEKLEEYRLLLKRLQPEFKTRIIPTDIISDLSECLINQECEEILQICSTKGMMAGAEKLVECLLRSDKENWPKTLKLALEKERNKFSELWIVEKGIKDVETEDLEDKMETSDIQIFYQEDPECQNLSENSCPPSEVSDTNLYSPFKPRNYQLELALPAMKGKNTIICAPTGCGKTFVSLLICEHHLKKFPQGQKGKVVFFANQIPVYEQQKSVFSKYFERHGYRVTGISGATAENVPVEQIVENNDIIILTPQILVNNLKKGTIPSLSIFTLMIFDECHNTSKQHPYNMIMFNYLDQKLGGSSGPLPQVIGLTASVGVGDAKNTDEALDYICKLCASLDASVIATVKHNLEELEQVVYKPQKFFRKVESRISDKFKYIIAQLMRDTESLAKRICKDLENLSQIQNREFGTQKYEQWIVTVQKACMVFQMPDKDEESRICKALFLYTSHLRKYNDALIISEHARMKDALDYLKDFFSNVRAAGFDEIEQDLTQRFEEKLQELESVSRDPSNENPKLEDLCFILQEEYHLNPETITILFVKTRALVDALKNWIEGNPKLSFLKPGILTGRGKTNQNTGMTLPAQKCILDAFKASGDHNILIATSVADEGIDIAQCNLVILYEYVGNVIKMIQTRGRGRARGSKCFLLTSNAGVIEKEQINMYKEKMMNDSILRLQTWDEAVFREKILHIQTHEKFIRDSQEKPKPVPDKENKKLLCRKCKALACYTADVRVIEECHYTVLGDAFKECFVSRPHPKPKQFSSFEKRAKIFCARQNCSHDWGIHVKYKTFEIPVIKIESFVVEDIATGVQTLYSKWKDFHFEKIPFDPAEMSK", "test": "Ligand binding studies: pull-down of RIG-I by biotinylated RNA", "design": "HEK 293 cells were transiently transfected with full length RIG-I, RIG-I CARD2 or RIG-I ΔHELIc; expressed in transfected cells; host or cells: HEK 293 (whole cell lysate)", "details": "whole cell lysate of HEK 293 cells overexpressing full length RIG-I", "method": "(§1) Cell lysates were prepared according to Meister et al. (G. Meister et al., Mol Cell 15, 185 (Jul. 23, 2004)) with minor modifications. HEK 293 cells were transfected using high molecular weight (25 kDa) polyethylenimine (PEI; Sigma, 40.872-7). At a confluency of 80-90%, cells were transfected with a PEI:DNA ratio of 1.5:1. 24-36 hours after transfection cells were harvested and the cell pellet was resuspended in five pellet volumes of 10 mM KCl, 1.5 mM MgCl2, 0.5 mM dithiothreitol, 10 mM HEPES-NaOH (pH 7.9), 0.5 mM PMSF and incubated for ten minutes on ice. Subsequently cells were washed and the cell pellet was resuspended in two pellet volumes of the buffer described above and homogenized by douncing. The cell nuclei were removed from the cell lysate by centrifugation at 2.000 g for ten minutes. The supernatant was transferred into microcentrifuge tubes and cleared further by centrifugation at 2.000 g for ten minutes and further centrifugation for 30 minutes at 20.000 g to obtain the cytoplasmic extract. The concentration of KCl of the extract was subsequently raised to 100 mM by addition of 2 M KCl and glycerol was added to a percentage of 10%. For purification of FLAG-tagged RIG-IC complexes, cytoplasmic extracts were incubated in FLAG M2 agarose beads (Sigma). FLAG M2 agarose beads were washed once with 0.1 M glycine (pH 3.5) and equilibrated by washing with 1 M Tris-HCl (pH 8.0). […]"}, "[2]": {"biological_target": "T1, RIG-I", "test": "pIFN-beta-Luc reporter assay in HEK 293 cells transfected with RIG-I", "type": "cell-based", "design": "Only HEK 293 cells expressing full length RIG-I responded to 5′triphosphate RNA; FLAG; expressed in transfected cells; host or cells: HEK 293", "details": "HEK 293 cells expressing full length RIG-I, 200 ng, 24 hours"}, "[3]": {"system": "PDC", "test": "IFN-α production in human PDC (ELISA)", "type": "cell-based", "details": "24 hours", "method": "Human PBMC were prepared from whole blood donated by young healthy donors by Ficoll-Hypaque density gradient centrifugation (Biochrom, Berlin, Germany). PDC were isolated by MACS using the blood dendritic cell Ag (BCDA)-4 dendritic cell isolation kit from Miltenyi Biotec (Bergisch-Gladbach, Germany). Briefly, PDC were labelled with anti-BDCA-4 Ab coupled to colloidal paramagnetic microbeads and passed through a magnetic separation column twice (LS column, then MS column; Miltenyi Biotec). The purity of isolated PDC (lineage-negative, MHC-II-positive and CD123-positive cells) was above 95%. Before isolation of monocytes, PDC were depleted by MACS (LD column; Miltenyi Biotec) and then monocytes were isolated using the monocyte isolation kit II (Miltenyi Biotec). […] PDC cultures were additionally supplemented with 10 ng/ml IL-3 (R&D Systems). […] Vero (African green monkey kidney) and HEK 293T (human embryonic kidney) cells were maintained in Dulbecco's modified Eagle's medium supplemented with antibiotics and 5% or 10% foetal calf serum, respectively. BSR cells were propagated in Glasgow minimal essential medium supplemented with 10% newborn calf serum, phosphate broth, amino acids and antibiotics.\nHuman IFN-α was assessed in cell culture supernatants using the IFN-α module set (Bender MedSystems, Graz, Austria). The murine IP-10 ELISA was from Biosource (Solingen, Germany), the murine IFN-[…] ELISA was from PBL Biomedical Laboratories (Piscataway, USA). All ELISA procedures were performed, according to manufacturers' recommendations."}, "[4]": {"system": "human primary monocytes", "test": "IFN-α production in human primary monocytes transfected with RNA (ELISA)", "type": "cell-based", "details": "for IFN-α production in monocytes: 200 ng RNA transfected, 24 hours, ELISA"}, "[5]": {"system": "RIG-I", "test": "Ligand binding studies: pull-down of RIG-I by biotinylated RNA", "details": "CARD2 and RIG-I Δ Helicase_C", "method": "as §1"}, "[6]": {"system": "Caspase-1", "test": "Caspase-1 activation in B16 cells (western blot)", "type": "cell-based, murine", "details": "24 hours", "method": "(e) B16 cells were incubated with control siRNA, 3p-2.2 and poly(I:C) for 24 hours and assessed for caspase-1 activity via immunoblotting. α-Tublin served as loading control. One representative experiment of three is shown.\n(§2) For Western blotting, samples were separated by SDS-PAGE and transferred to a nitrocellulose membrane (Amersham-Biosciences, UK) by semi-dry electroblotting. As primary antibody polyclonal rat anti-RIG-I (kind gift of Dr. Kremer), polyclonal rabbit anti-Bcl-2 (Santa Cruz, sc-7382) and rabbit anti-caspase-1 (Santa Cruz, sc-7148) antibody were used. As secondary antibody, peroxidase-conjugated anti-mouse or anti-rabbit antibody (Amersham-Biosciences) were used. Bound antibodies were visualized by enhanced chemiluminescence system (ECL) according to the manufacturer's protocol (Amersham-Biosciences)."}, "[7]": {"system": "PBMC", "test": "IFN-α induction in the presence of chloroquine", "type": "cell-based, human"}, "[8]": {"system": "RIG-I", "test": "Expression of endogenous RIG-I in B16 cells (western blot)", "type": "cell-based, murine", "details": "6 hours", "method": "(b) To determine the endogenous expression of RIG-I, B16 cells were stimulated with 3p-2.2 (1.2 μg/well) and murine IFN-β (1000 U/ml). After 6 hours cells were lysed and analyzed for endogenous expression of RIG-I by Western Blot. HEK293 cells overexpressing full-length RIG-I served as positive control. One representative experiment of two is shown.\nas §2"}},
  "note": "Oligonucleotides are written 5' to 3', each unit as a sugar letter and its base; * is a phosphorothioate linkage, no mark a phosphodiester; rarer units and linkages stand in square brackets, end groups in braces. Plain capitals give the bases only. {ppp} = triphosphate group; {Biotin} = biotin label U; r = 2'-OH (RNA)",
  "data": [
    {"molecule": "5′-pppGGGAGACAGGCACCACACACACACACACUUU-3′ [tri-G-AC-U]", "values": [
      {"measurement": "pull-down of full length RIG-I", "setting": "[1]", "result": "did not immunoprecipitate RIG-I"}
    ]},
    {"molecule": "5′-OHAGCUUAACCUGUCCUUCAA-3′ [synthetic isRNA9.2s, reference compound]", "values": [
      {"measurement": "IFN-β promoter reporter expression", "setting": "[2]", "result": "did not respond"},
      {"measurement": "IFN-α production in PDC", "setting": "[3]", "result": "produced IFN-α"}
    ]},
    {"molecule": "5′-pppGGGGAUGAACUUCAGGGUCAGCUU-3′ ({ppp}-rGrGrGrGrArUrGrArArCrUrUrCrArGrGrGrUrCrArGrCrUrU) [tri-GFPa]", "values": [
      {"measurement": "IFN-β promoter reporter expression", "setting": "[2]", "result": "strongly activated reporter expression"},
      {"measurement": "IFN-α production in monocytes", "setting": "[4]", "result": "comparable levels of IFN-α"}
    ]},
    {"molecule": "tri-G-AC-U-Bio: biotinylated 5′ triphosphate oligonucleotide, SEQ ID NO: 349, 3′ terminal biotinylated U (GGGAGACAGGCACCACACACACACACACUUU; RNA, 5' {ppp}, 3' {Biotin}, backbone not given here; biotin attached to the 3'-terminal U)", "values": [
      {"measurement": "pull-down of truncated versions of RIG-I", "setting": "[5]", "result": "not very effective at pulling down"},
      {"measurement": "pull-down of full length RIG-I", "setting": "[1]", "result": "able to immunoprecipitate full length RIG-I"}
    ]},
    {"molecule": "5′-pppGGGGCUGACCCUGAAGUUCAUCUU-3′ [tri-GFPs]", "values": [
      {"measurement": "IFN-β promoter reporter expression", "setting": "[2]", "result": "strongly activated reporter expression"},
      {"measurement": "IFN-α production in monocytes", "setting": "[4]", "result": "comparable levels of IFN-α"}
    ]},
    {"molecule": "Polyinosinic:polycytidylic acid [poly(I:C)]", "values": [
      {"measurement": "cleavage of procaspase-1", "setting": "[6]", "result": "increased cleavage of procaspase-1 to active subunit p10"},
      {"measurement": "IFN-β promoter reporter expression", "setting": "[2]", "result": "did not respond"}
    ]},
    {"molecule": "5′-ggGGGACGATCGTCgggggG-3′ [CpG-A ODN 2216, reference compound]", "values": [
      {"measurement": "effect of increasing concentrations of chloroquine on IFN-α induction", "setting": "[7]", "result": "inhibited IFN-α induction"},
      {"measurement": "IFN-α production in PDC", "setting": "[3]", "result": "induce IFN-α in PDC"},
      {"measurement": "IFN-α production in monocytes", "setting": "[4]", "result": "failed to produce IFN-α"},
      {"measurement": "IFN-α production with chloroquine", "setting": "[4]; isolated monocytes", "result": "inactive"}
    ]},
    {"molecule": "B1", "values": [
      {"measurement": "RIG-I-expression", "setting": "[8]", "result": "strongly upregulated"}
    ]}
  ]
}
